Source: US4725683A, “Fluorophenoxyphenoxypropionates and derivatives thereof” (The Dow Chemical Company, priority 1985, dated 1988)

What was measured:
Type in all cases: in vivo
Wheat [1] = assay: Preemergent activity; settings: Triticum aestivum, pre-emergence, read-out: Preemergence Control; for plant injury at 70 g/ha: 0.07 kgs/hectare; for plant injury at 140 g/ha: 0.14 kgs/hectare; for plant injury at 280 g/ha: 0.28 kgs/hectare; for plant injury at 560 g/ha: 0.56 kgs/hectare; for plant injury at 1120 g/ha: 1.12 kgs/hectare
Protocol: (§1) In a representative operation, 2-[4-(2-fluoro-4-trifluoromethylphenoxy)phenoxy]propionic acid methyl ester, to be utilized in a series of tests, is dissolved in acetone to one half of the final volume (twice the final concentration) to be used and the acetone solution in each case is admixed with an equal volume of water containing 0.1 percent by weight of Tween-20 surface active material (Tween-20 is a trademark of Atlas Chemical Company). The composition, generally in the nature of an emulsion, was employed to treat separate respective seed beds of sandy loam soil of good nutrient content wherein each seed bed contained separate groups of good viable seeds, each group being of one of a known plant species. The various beds were positioned side by side and exposed to substantially identical conditions of temperature and light. Each bed was maintained so as to prevent any interaction with the test compound in different seed beds. Each seed bed was treated with the composition as a spray employing conventional spraying equipment to deposit a predetermined amount of the compound uniformly throughout the surface of the bed. Another seed bed was treated only with the acetone-Tween-20 water mixture with no chemical added to serve as a control.

Johnson Grass = assay: Preemergent activity; settings: Sorghum halepense, pre-emergence, read-out: Preemergence Control; for pest or weed control at 140 g/ha: 0.14 kgs/hectare; for pest or weed control at 1120 g/ha: 1.12 kgs/hectare
Protocol: as §1

Barnyard Grass = assay: Preemergent activity; settings: Echinochloa crus-galli, pre-emergence, read-out: Preemergence Control; for pest or weed control at 140 g/ha: 0.14 kgs/hectare; for pest or weed control at 1120 g/ha: 1.12 kgs/hectare
Protocol: as §1

Yellow Foxtail [2] = assay: Preemergent activity; settings: Setaria, pre-emergence, read-out: Preemergence Control; for pest or weed control at 140 g/ha: 0.14 kgs/hectare; for pest or weed control at 1120 g/ha: 1.12 kgs/hectare
Protocol: as §1

Wild Oats [3] = assay: Preemergent activity; settings: Avena fatua, pre-emergence, read-out: Preemergence Control; for pest or weed control at 140 g/ha: 0.14 kgs/hectare; for pest or weed control at 1120 g/ha: 1.12 kgs/hectare
Protocol: as §1

Crabgrass = assay: Preemergent activity
Protocol: as §1

Green Foxtail = assay: Postemergent activity
Protocol: (§2) Representative compositions of the present invention were evaluated for the postemergence control of species of plants listed in Table A. In these evaluations, pots of the plant species listed in Table A, grown to a height of about 10 cms, were used. […] The spray compositions were made by mixing the active ingredient in acetone to 1/2 the final volume, i.e., twice the final concentration. An equal amount of water was added to the active ingredient/acetone mixture wherein the water contained 0.1 percent by weight of TWEEN® 200 surfactant. The application to the plants was made to the point of run-off and was carried out with conventional spraying equipment. […] Thereafter, the pots were maintained under conditions conducive for plant growth.

Barley = assay: Postemergent activity
Protocol: as §2

Yellow Foxtail [4] = assay: Postemergent activity
Protocol: as §2

Blackgrass = assay: Postemergent activity
Protocol: as §2

Cheatgrass = assay: Postemergent activity
Protocol: as §2

Wheat [5] = assay: Postemergent activity; settings: Triticum aestivum, post-emergence, 336 h, read-out: % Control
Protocol: (§3) Representative compositions of the present invention were evaluated for the postemergence control of species of plants listed in Table A. In these evaluations, pots of the plant species listed in Table A, grown to a height of about 10 cms, were used. Aqueous spray compositions, containing various amounts of 2-[4-(2-fluoro-4-trifluoromethylphenoxy)-phenoxy]propionic acid methy ester, i.e., 125 ppm, 62.5 ppm, 31.25 ppm, 15.6 ppm, 7.8 ppm and 3.9 ppm, respectively, were applied to separate pots. The spray compositions were made by mixing the active ingredient in acetone to 1/2 the final volume, i.e., twice the final concentration. An equal amount of water was added to the active ingredient/acetone mixture wherein the water contained 0.1 percent by weight of TWEEN® 200 surfactant. The application to the plants was made to the point of run-off and was carried out with conventional spraying equipment. Other pots were sprayed with similar compositions containing no toxicant to serve as controls. Thereafter, the pots were maintained under conditions conducive for plant growth. Two weeks after treatment, the pots were examined for plant growth and evaluated on a scale of 0 to 100 where 0 represents no effect and 100 represents complete kill. The results of the examination of the treated pots are set forth below in Table A.
(§4) Substantially the same procedures as those described in Example A were repeated except that the active ingredients were 2-[4-(4-chloro-2-fluorophenoxy)phenoxy]propionic acid; methyl ester and its R-enantiomer and 2-(4-(4-bromo-2-fluorophenoxy)phenoxy propionic acid; methyl ester and its R enantiomer. The results are listed below in Table B.
(§5) In further operations employing the above general procedures and the indicated test compounds the following results were obtained: […]

Wild Oats [6] = assay: Postemergent activity; settings: Avena fatua, post-emergence, 336 h, read-out: % Control
Protocol: as §3, §4, §5

Question: How did the plant injury at 70 g/ha (Wheat [1]) turn out when COC(=O)[C@@H](C)Oc1ccc(Oc2ccc(Cl)cc2F)cc1 [4-Chloro-(R-Enantiomer), R enantiomer of 2-[4-(4-chloro-2-fluorophenoxy)phenoxy]propionic acid methyl ester] was run?
Answer: 0%

Question: And the plant injury at 140 g/ha (Wheat [1])?
Answer: 0%

Question: What about the plant injury at 280 g/ha (Wheat [1]) of the same molecule?
Answer: 0%

Question: What about the plant injury at 560 g/ha (Wheat [1]) of the same molecule?
Answer: 10%

Question: And the plant injury at 1120 g/ha (Wheat [1])?
Answer: 20%

Question: What about the pest or weed control at 70 g/ha (Johnson Grass; 0.07 kgs/hectare) of the same molecule?
Answer: 0%

Question: What about the pest or weed control at 140 g/ha (Johnson Grass) of the same molecule?
Answer: 0%

Question: And the pest or weed control at 280 g/ha (Johnson Grass; 0.28 kgs/hectare)?
Answer: 80%

Question: What about the pest or weed control at 560 g/ha (Johnson Grass; 0.56 kgs/hectare) of the same molecule?
Answer: 95%

Question: What about the pest or weed control at 1120 g/ha (Johnson Grass) of the same molecule?
Answer: 98%

Question: And the pest or weed control at 70 g/ha (Barnyard Grass; 0.07 kgs/hectare)?
Answer: 0%

Question: And the pest or weed control at 140 g/ha (Barnyard Grass)?
Answer: 10%

Question: And the pest or weed control at 280 g/ha (Barnyard Grass; 0.28 kgs/hectare)?
Answer: 98%

Question: And the pest or weed control at 560 g/ha (Barnyard Grass; 0.56 kgs/hectare)?
Answer: 100%

Question: And the pest or weed control at 1120 g/ha (Barnyard Grass)?
Answer: 100%

Question: And the pest or weed control at 70 g/ha (Yellow Foxtail [2]; 0.07 kgs/hectare)?
Answer: 0%

Question: And the pest or weed control at 140 g/ha (Yellow Foxtail [2])?
Answer: 0%

Question: What about the pest or weed control at 280 g/ha (Yellow Foxtail [2]; 0.28 kgs/hectare) of the same molecule?
Answer: 30%

Question: What about the pest or weed control at 560 g/ha (Yellow Foxtail [2]; 0.56 kgs/hectare) of the same molecule?
Answer: 95%

Question: What about the pest or weed control at 1120 g/ha (Yellow Foxtail [2]) of the same molecule?
Answer: 98%

Question: And the pest or weed control at 70 g/ha (Wild Oats [3]; 0.07 kgs/hectare)?
Answer: 0%

Question: What about the pest or weed control at 140 g/ha (Wild Oats [3]) of the same molecule?
Answer: 0%

Question: And the pest or weed control at 280 g/ha (Wild Oats [3]; 0.28 kgs/hectare)?
Answer: 0%

Question: And the pest or weed control at 560 g/ha (Wild Oats [3]; 0.56 kgs/hectare)?
Answer: 60%

Question: What about the pest or weed control at 1120 g/ha (Wild Oats [3]) of the same molecule?
Answer: 80%

Question: What about the “Preemergence Control” value (Crabgrass; 0.07 kgs/hectare) of the same molecule?
Answer: 70%

Question: What about the “Preemergence Control” value (Crabgrass; 0.14 kgs/hectare) of the same molecule?
Answer: 98%

Question: What about the “Preemergence Control” value (Crabgrass; 0.28 kgs/hectare) of the same molecule?
Answer: 100%

Question: What about the “Preemergence Control” value (Crabgrass; 0.56 kgs/hectare) of the same molecule?
Answer: 100%

Question: What about the “Preemergence Control” value (Crabgrass; 1.12 kgs/hectare) of the same molecule?
Answer: 100%

Question: And the “% Control” value (Green Foxtail; 0.4 ppm)?
Answer: 0%

Question: What about the “% Control” value (Green Foxtail; 0.8 ppm) of the same molecule?
Answer: 80%

Question: And the “% Control” value (Green Foxtail; 1.6 ppm)?
Answer: 100%

Question: What about the “% Control” value (Green Foxtail; 3.2 ppm) of the same molecule?
Answer: 100%

Question: What about the “% Control” value (Green Foxtail; 6.3 ppm) of the same molecule?
Answer: 100%

Question: What about the “% Control” value (Green Foxtail; 12.5 ppm) of the same molecule?
Answer: 100%

Question: And the “% Control” value (Green Foxtail; 25 ppm)?
Answer: 100%

Question: And the “% Control” value (Barley; 7.8 ppm)?
Answer: 0%

Question: What about the “% Control” value (Barley; 15.6 ppm) of the same molecule?
Answer: 0%

Question: What about the “% Control” value (Barley; 31.25 ppm) of the same molecule?
Answer: 0%

Question: What about the “% Control” value (Barley; 62.5 ppm) of the same molecule?
Answer: 0%

Question: What about the “% Control” value (Barley; 125 ppm) of the same molecule?
Answer: 40%

Question: What about the “% Control” value (Yellow Foxtail [4]; 0.4 ppm) of the same molecule?
Answer: 0%

Question: And the “% Control” value (Yellow Foxtail [4]; 0.8 ppm)?
Answer: 0%

Question: And the “% Control” value (Yellow Foxtail [4]; 1.6 ppm)?
Answer: 0%

Question: What about the “% Control” value (Yellow Foxtail [4]; 3.2 ppm) of the same molecule?
Answer: 40%

Question: And the “% Control” value (Yellow Foxtail [4]; 6.3 ppm)?
Answer: 60%

Question: What about the “% Control” value (Yellow Foxtail [4]; 12.5 ppm) of the same molecule?
Answer: 100%

Question: And the “% Control” value (Yellow Foxtail [4]; 25 ppm)?
Answer: 100%

Question: And the “% Control” value (Blackgrass; 0.4 ppm)?
Answer: 0%

Question: And the “% Control” value (Blackgrass; 0.8 ppm)?
Answer: 40%

Question: And the “% Control” value (Blackgrass; 1.6 ppm)?
Answer: 80%

Question: What about the “% Control” value (Blackgrass; 3.2 ppm) of the same molecule?
Answer: 90%

Question: And the “% Control” value (Blackgrass; 6.3 ppm)?
Answer: 95%

Question: And the “% Control” value (Blackgrass; 12.5 ppm)?
Answer: 100%

Question: And the “% Control” value (Blackgrass; 25 ppm)?
Answer: 100%

Question: And the “% Control” value (Cheatgrass; 0.4 ppm)?
Answer: 0%

Question: And the “% Control” value (Cheatgrass; 0.8 ppm)?
Answer: 0%

Question: What about the “% Control” value (Cheatgrass; 1.6 ppm) of the same molecule?
Answer: 0%

Question: What about the “% Control” value (Cheatgrass; 3.2 ppm) of the same molecule?
Answer: 0%

Question: And the “% Control” value (Cheatgrass; 6.3 ppm)?
Answer: 0%

Question: And the “% Control” value (Cheatgrass; 12.5 ppm)?
Answer: 0%

Question: What about the “% Control” value (Cheatgrass; 25 ppm) of the same molecule?
Answer: 0%

Question: What about the plant injury at 7.8 ppm (Wheat [5]) of the same molecule?
Answer: 0%

Question: And the plant injury at 15.6 ppm (Wheat [5])?
Answer: 0%

Question: What about the plant injury at 31.25 ppm (Wheat [5]) of the same molecule?
Answer: 0%

Question: What about the plant injury at 62.5 ppm (Wheat [5]) of the same molecule?
Answer: 70%

Question: What about the plant injury at 125 ppm (Wheat [5]) of the same molecule?
Answer: 60%

Question: What about the pest or weed control at 7.8 ppm (Wild Oats [6]) of the same molecule?
Answer: 40%

Question: What about the pest or weed control at 15.6 ppm (Wild Oats [6]) of the same molecule?
Answer: 80%

Question: And the pest or weed control at 31.25 ppm (Wild Oats [6])?
Answer: 100%

Question: And the pest or weed control at 62.5 ppm (Wild Oats [6])?
Answer: 100%

Question: And the pest or weed control at 125 ppm (Wild Oats [6])?
Answer: 100%

Question: What does the source list for CC(Oc1ccc(Oc2ccc(Br)cc2F)cc1)C(=O)N(C)c1ccccc1 (centres unmarked)?
Answer: plant injury at 70 g/ha (Wheat [1]): 0%; plant injury at 140 g/ha (Wheat [1]): 0%; plant injury at 280 g/ha (Wheat [1]): 0%; plant injury at 560 g/ha (Wheat [1]): 0%; plant injury at 1120 g/ha (Wheat [1]): 0%; pest or weed control at 140 g/ha (Johnson Grass): 0%; pest or weed control at 1120 g/ha (Johnson Grass): 0%; pest or weed control at 140 g/ha (Barnyard Grass): 0%; pest or weed control at 1120 g/ha (Barnyard Grass): 0%; pest or weed control at 140 g/ha (Yellow Foxtail [2]): 0%; pest or weed control at 1120 g/ha (Yellow Foxtail [2]): 0%; pest or weed control at 140 g/ha (Wild Oats [3]): 0%; pest or weed control at 1120 g/ha (Wild Oats [3]): 0%
